From PMC6891286, “Towards the Development of an In vivo Chemical Probe for Cyclin G Associated Kinase (GAK)” (Molecules, 2019)
Read-outs that look alike come from different tables or passages of the source.

Key:
CYP2A6 = tested on: CYP2A6; design: method as in PMID 18936109; settings: cited from earlier work
CYP3A4 = tested on: CYP3A4; design: method as in PMID 18936109; settings: cited from earlier work
CYP1A2 = tested on: CYP1A2; design: method as in PMID 18936109; settings: cited from earlier work
CYP2B6 = tested on: CYP2B6; design: method as in PMID 18936109; settings: cited from earlier work
CYP2C8 = tested on: CYP2C8; design: method as in PMID 18936109; settings: cited from earlier work
CYP2C9 = tested on: CYP2C9; design: method as in PMID 18936109; settings: cited from earlier work
CYP2C19 = tested on: CYP2C19; design: method as in PMID 18936109; settings: cited from earlier work
CYP2D6 = tested on: CYP2D6; design: method as in PMID 18936109; settings: cited from earlier work
[1] = mouse liver microsome metabolic stability; settings: for CLint scaled / half-life: mouse; for half-life: mean average, n = 2
Protocol: SGC-GAK-1 (1) was incubated with MLMs in the presence or absence of added NADPH, and the compound was quantified at various time points over an hour.
The metabolic stability of the 4-anilinoquinolines (8–13) were evaluated in MLMs (Table 1). Half-lives for metabolic clearance were normalized to propranolol in each experimental run to control for variations in the MLM preparations.

[2] = pharmacokinetic profiling in mice, oral dosing; format: in vivo; settings: C57BL/6 mice, 10 mg/kg po; for Cmax / AUC(0-inf) / Tmax: 10 mg/kg
Protocol: Pharmacokinetic profiling was performed by SAI Life Sciences (Hyderabad, India). […] Prior approval of the Institutional Animal Ethics Committee (IAEC) was obtained before initiation of the study. Healthy male C57BL/6 mice (8–12 weeks old) weighing between 20 and 35 g were procured from (Envigo Research Private Ltd., City, Hyderabad, India). Three mice were housed in each cage. […] Temperature and humidity were recorded by an automatically controlled data logger system. All animals were provided a laboratory rodent diet (Envigo Research Private Ltd., Hyderabad, India). Reverse osmosis water treated with ultraviolet light was provided ad libitum. Eighteen male mice were weighed and divided in to two groups (Group 1 and Group 2), with nine mice in each group. […] The dosing volume administered was 10 mL/kg for the oral route. […] Plasma samples were separated by centrifugation at 4000 rpm for 10 min and stored below −70 °C until bioanalysis. […] The plasma concentration-time data were then used for the pharmacokinetic analysis. A non-compartmental analysis module in Phoenix WinNonlin (Version 6.3, Certara USA Inc., Raleigh, NC, USA) was used to assess the pharmacokinetic parameters. Maximum concentration (Cmax) and time to reach the maximum concentration (Tmax) were the observed values. The areas under the concentration time curve (AUClast and AUCinf) were calculated by linear trapezoidal rule.

AAK1 = AAK1 (Homo sapiens, UniProt Q2M2I8); assay: NAK family TR-FRET binding displacement assay; settings: NAK family FRET screening
Sequence of AAK1 (Q2M2I8 whole entry): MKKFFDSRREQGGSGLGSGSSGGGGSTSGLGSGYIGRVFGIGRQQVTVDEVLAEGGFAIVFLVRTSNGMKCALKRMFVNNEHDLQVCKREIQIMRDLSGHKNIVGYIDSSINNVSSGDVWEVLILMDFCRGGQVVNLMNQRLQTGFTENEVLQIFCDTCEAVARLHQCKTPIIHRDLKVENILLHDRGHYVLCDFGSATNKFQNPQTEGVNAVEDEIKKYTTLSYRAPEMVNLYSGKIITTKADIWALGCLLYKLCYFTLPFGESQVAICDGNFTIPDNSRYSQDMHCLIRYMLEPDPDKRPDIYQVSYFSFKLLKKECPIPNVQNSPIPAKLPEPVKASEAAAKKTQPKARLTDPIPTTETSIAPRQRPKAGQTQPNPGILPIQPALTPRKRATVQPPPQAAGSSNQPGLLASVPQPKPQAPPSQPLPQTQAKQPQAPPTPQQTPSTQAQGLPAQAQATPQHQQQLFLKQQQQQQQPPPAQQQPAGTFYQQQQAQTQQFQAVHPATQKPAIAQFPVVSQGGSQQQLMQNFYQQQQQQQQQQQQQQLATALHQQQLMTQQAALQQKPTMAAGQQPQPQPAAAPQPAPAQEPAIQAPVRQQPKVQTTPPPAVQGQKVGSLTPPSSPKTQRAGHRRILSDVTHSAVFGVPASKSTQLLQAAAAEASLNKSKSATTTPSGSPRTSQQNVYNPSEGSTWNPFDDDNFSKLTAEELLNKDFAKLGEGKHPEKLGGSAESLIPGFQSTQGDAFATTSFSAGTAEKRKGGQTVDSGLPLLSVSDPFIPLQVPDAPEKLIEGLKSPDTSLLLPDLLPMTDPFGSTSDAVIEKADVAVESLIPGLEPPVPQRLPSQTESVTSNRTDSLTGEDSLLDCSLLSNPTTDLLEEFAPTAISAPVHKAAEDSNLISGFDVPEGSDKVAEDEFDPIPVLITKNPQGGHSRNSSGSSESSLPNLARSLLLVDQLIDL

STK16 = STK16 (Homo sapiens, UniProt O75716); assay: NAK family TR-FRET binding displacement assay; settings: NAK family FRET screening; read-out: Binding displacement assay STK16 Ki
Sequence of STK16 (O75716 whole entry): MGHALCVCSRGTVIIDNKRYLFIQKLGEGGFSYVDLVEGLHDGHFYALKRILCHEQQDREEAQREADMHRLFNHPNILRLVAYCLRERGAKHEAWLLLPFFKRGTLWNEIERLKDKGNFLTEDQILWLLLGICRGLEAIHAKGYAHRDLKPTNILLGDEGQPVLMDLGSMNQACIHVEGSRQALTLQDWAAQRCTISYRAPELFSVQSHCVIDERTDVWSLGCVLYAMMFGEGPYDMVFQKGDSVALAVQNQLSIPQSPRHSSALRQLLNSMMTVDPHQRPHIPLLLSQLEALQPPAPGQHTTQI

Kinetic Solubility = format: physicochemical; settings: pH 7.4, aqueous buffer, kinetic from dmso stock, PBS pH7.4 (100 µM)
GAK [3] = target: T1, GAK (Homo sapiens, UniProt O14976); design: method as in PMID 30768268, PMID 30973735; settings: cited from earlier work
T1 sequence (O14976 1-1311): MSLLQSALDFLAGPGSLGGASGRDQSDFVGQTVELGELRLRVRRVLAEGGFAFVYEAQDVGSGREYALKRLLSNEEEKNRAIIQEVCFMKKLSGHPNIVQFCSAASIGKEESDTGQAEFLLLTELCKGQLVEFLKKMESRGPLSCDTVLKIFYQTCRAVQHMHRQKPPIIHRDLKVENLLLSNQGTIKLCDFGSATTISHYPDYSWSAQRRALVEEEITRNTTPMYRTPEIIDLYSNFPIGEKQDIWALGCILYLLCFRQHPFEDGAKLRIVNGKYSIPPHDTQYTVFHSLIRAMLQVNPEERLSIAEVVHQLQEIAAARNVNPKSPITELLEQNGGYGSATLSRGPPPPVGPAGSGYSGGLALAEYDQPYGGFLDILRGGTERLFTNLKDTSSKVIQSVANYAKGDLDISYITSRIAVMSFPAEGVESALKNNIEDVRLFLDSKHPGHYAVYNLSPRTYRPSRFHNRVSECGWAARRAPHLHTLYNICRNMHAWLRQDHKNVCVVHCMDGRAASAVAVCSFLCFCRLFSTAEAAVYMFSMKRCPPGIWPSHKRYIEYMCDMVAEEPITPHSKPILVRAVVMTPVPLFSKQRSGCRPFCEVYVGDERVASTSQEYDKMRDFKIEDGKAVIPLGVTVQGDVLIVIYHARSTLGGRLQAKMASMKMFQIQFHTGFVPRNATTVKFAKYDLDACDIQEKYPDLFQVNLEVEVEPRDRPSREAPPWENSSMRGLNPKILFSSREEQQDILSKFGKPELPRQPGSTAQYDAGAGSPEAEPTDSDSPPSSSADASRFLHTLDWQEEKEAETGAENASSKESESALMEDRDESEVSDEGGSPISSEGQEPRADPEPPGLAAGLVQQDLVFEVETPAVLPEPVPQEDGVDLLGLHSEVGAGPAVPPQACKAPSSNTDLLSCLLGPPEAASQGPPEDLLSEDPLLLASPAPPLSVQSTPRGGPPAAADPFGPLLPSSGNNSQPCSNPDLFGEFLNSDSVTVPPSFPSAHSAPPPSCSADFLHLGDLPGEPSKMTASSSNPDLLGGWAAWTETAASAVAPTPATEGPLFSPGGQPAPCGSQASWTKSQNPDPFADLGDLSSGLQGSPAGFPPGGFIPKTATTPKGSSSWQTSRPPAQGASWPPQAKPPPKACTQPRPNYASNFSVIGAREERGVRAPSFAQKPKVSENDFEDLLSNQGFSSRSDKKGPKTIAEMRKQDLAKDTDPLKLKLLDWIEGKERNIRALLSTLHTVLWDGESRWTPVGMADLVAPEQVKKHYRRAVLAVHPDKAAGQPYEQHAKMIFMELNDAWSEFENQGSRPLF

[4] = tested on: prostate cancer cells that contain constitutively-active splice variants of the androgen receptor; design: method as in PMID 30973735; settings: cited from earlier work
GAK [5] = target: T1, GAK; assay: TR-FRET ligand-binding displacement assay; settings: TR-FRET assay; read-out: Biochemical GAK Ki
GAK [6] = target: T1, GAK; assay: live cell NanoBRET target engagement assay; format: cell-based; settings: nanoBRET; mean average, n = 2
[7] = metabolite identification in mouse liver microsomes
Protocol: After centrifugation, the supernatant was subjected to analysis by LCMS, and structures of metabolites were assigned on the basis of their molecular weight and fragmentation pattern.
Compounds were incubated at a concentration of 10 µM with mouse liver microsomes in the presence of an excess of NADPH.
1.1. General Numbering of Metabolites
The metabolites are numbered according to their retention times in the gradient LC-MS analysis in positive […]
ion mode. […] The M number increases […]
consecutively for metabolites with increasing retention time.
To avoid confusion, labelled retention times of a metabolite peak in different injections are the same, which may lead to mismatch between labelled retention time and actual retention time.
General Strategy for Metabolite Identification
The vehicle control and study samples were injected into LC-MS with gradient elution using a Q1 scan method. Searching for potential metabolites was then performed using LightSight software (Applied Biosystems/MDS Sciex) by comparing a total ion current chromatogram of Q1 scan from a study sample with a chromatogram from the corresponding vehicle control sample. The study sample was then injected again to obtain the product ion spectra of potential metabolites using product ion scan methods. The fragmentation patterns of the potential metabolites were then compared to the fragmentation of the parent compound to elucidate the structures of the metabolites.
The assignment of fragments is shown
2.2. Identification of Metabolites in Mouse Liver Microsomal Incubation

BMP2K = BMP2K (Homo sapiens, UniProt Q9NSY1); assay: NAK family TR-FRET binding displacement assay
Sequence of BMP2K (Q9NSY1 whole entry): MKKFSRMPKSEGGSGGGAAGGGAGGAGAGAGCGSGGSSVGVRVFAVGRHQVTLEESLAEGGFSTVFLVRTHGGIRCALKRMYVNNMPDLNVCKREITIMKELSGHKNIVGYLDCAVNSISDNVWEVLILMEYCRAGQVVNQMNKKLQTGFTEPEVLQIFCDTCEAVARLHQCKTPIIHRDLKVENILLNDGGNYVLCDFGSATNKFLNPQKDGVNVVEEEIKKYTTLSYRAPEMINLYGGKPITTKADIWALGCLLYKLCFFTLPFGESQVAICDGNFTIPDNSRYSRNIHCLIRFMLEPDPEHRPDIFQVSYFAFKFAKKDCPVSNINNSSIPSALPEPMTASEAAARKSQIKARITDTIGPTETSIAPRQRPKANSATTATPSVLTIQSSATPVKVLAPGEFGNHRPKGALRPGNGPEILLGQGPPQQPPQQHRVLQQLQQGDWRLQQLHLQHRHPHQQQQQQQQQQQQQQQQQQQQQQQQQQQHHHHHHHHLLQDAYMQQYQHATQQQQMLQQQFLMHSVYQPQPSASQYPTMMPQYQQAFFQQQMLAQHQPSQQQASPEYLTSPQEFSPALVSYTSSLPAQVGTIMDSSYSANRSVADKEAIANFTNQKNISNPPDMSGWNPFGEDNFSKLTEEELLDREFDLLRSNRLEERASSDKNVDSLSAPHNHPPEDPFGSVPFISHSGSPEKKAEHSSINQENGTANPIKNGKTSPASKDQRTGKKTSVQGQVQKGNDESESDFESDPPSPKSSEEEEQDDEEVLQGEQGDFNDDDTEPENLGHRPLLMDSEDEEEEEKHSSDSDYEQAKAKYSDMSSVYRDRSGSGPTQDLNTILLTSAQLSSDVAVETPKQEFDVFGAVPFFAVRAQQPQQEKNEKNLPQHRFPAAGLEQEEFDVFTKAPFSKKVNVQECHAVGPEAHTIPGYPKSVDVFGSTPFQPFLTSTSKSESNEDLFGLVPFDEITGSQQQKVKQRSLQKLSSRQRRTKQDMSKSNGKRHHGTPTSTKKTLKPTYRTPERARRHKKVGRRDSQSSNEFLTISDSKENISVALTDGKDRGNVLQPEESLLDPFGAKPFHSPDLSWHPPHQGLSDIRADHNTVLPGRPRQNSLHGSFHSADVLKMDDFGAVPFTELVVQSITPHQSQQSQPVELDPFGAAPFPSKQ

EGFR = settings: read-out: EGFR KD; cited from earlier work
[8] = mouse liver microsomes, T1/2 (min), mouse liver microsomes with NADPH
[9] = male, C57BL/6, mouse, plasma, po, 2 h pretreat 50 mpk ABT
[10] = male, C57BL/6, mouse, plasma, po, without ABT
[11] = read-out: Kinetic Solubility µM
[12] = read-out: Kinetic Solubility µg/mL

Q: With `Nn1nnc2ccccc21` [ABT, 1-aminobenzotriazole] as the compound, how does the “inhibition of CYP2A6 activity” value (CYP2A6) read?
A: 100%

Q: And the “inhibition of CYP3A4 activity” value (CYP3A4)?
A: 100%

Q: And the “residual activity CYP1A2” value (CYP1A2)?
A: up to 20%

Q: What about the “residual activity CYP2B6” value (CYP2B6) of the same compound?
A: up to 20%

Q: And the “residual activity CYP2C8” value (CYP2C8)?
A: up to 20%

Q: What about the CYP2C9 activity remaining (CYP2C9) of the same compound?
A: 60%

Q: And the “residual activity CYP2C19” value (CYP2C19)?
A: up to 20%

Q: And the “residual activity CYP2D6” value (CYP2D6)?
A: up to 20%

Q: For `COc1cc(Nc2ccnc3ccc(Br)cc23)cc(OC)c1OC` [Compound 1], which “degradation in MLM” value ([1]; mouse liver microsomes in the absence of NADPH, over an hour) is on record?
A: No degradation

Q: And the CLint scaled ([1]; mouse liver microsomes, Clint (mL/min/kg) (+) ABT, mouse liver microsomes, (+) ABT)?
A: 40 mL/min/kg

Q: What about the CLint scaled ([1]; mouse liver microsomes, Clint (mL/min/kg) (−) ABT, (−) ABT) of the same compound?
A: 990 mL/min/kg

Q: And the half-life ([1]; mouse liver microsomes, T1/2 (min) (+) ABT, mouse liver microsomes, (+) ABT)?
A: 130 min

Q: And the half-life ([1]; mouse liver microsomes, T1/2 (min) (−) ABT, (−) ABT)?
A: 5.7 min

Q: What about the half-life [1, 8] of the same compound?
A: 5.7 min

Q: What about the “Cmax” value ([2]; without ABT) of the same compound?
A: 97 ng/mL

Q: What about the AUC(0-inf) [2, 9] of the same compound?
A: 1900 ng·h/mL

Q: And the Tmax [2, 9]?
A: 30 min

Q: And the Cmax ([2]; male, C57BL/6, mouse, plasma, po, 2 h pretreat 50 mpk ABT, read-out: Cmax)?
A: 650 ng/mL

Q: What about the AUC(0-inf) [2, 10] of the same compound?
A: 98 ng·h/mL

Q: What about the Tmax [2, 10] of the same compound?
A: 30 min

Q: And the Cmax ([2]; male, C57BL/6, mouse, plasma, po, without ABT, read-out: Cmax)?
A: < 100 ng/mL

Q: And the half-life ([2]; male, mouse, plasma, without ABT, read-out: T1/2 in mice)?
A: < 60 min

Q: What about the Ki (AAK1) of the same compound?
A: 53 µM

Q: What about the Ki (STK16) of the same compound?
A: 51 µM

Q: And the solubility kinetic (Kinetic Solubility; [11])?
A: 57.8 µM

Q: And the solubility kinetic (Kinetic Solubility; [12])?
A: 22.5 µg/mL

Q: What about the “GAK DSF ΔTm” value (GAK [3]) of the same compound?
A: 7.7 °C

Q: And the “viability of prostate cancer cells” value [4]?
A: potently inhibits

Q: For `Fc1ccc(Nc2ccnc3ccc(Br)cc23)c(F)c1` [Compound 11, 6-Bromo-N-(2,4-difluorophenyl)quinolin-4-amine], which Ki (GAK [5]) is on record?
A: 0.035 µM

Q: And the IC50 (GAK [6])?
A: 2.7 µM

Q: And the “T1/2 Ratio” value ([1]; mouse liver microsomes, normalization with respect to internal control (propranolol))?
A: 0.47

Q: What about the half-life [1, 8] of the same compound?
A: 3.2 min

Q: And the “Primary Metabolism Site” value [7]?
A: Aniline

Q: What about the “Primary Metabolite Mass” value [7] of the same compound?
A: Parent − F + OH

Q: What about the Ki (AAK1) of the same compound?
A: 5.7 µM

Q: What about the Ki (BMP2K) of the same compound?
A: 18 µM

Q: And the Ki (STK16)?
A: 11 µM

Q: What about the solubility kinetic (Kinetic Solubility; [11]) of the same compound?
A: 39.5 µM

Q: What about the solubility kinetic (Kinetic Solubility; [12]) of the same compound?
A: 13.2 µg/mL

Q: Which Kd (EGFR) does the source give for `C#Cc1cccc(Nc2ncnc3cc(OCCOC)c(OCCOC)cc23)c1` [Erlotinib, erlotinib] here?
A: 0.0007 µM
